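Each compound was tested at five concentrations against cells in 96-well plates for 48 hours. The concentration for 50% growth inhibition is given as GI50. TGI is the concentration that stops growth completely.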 Bounds are passed on as bounds.

Some test systems named below: U251 CNS; HT29 colon; SNB-75 CNS; UACC-62 melanoma; CAKI-1 renal; SK-MEL-5 melanoma; OVCAR-8 ovarian; HOP-62 NSCLC; EKVX NSCLC; HOP-92 NSCLC.
Holding throughout (experiment): DTP human tumour cell line panel, 48 h

A word on the GI50: it is the concentration that inhibits growth by half. The term TGI denotes the concentration giving total growth inhibition. Low values mean more potent growth arrest, high ones less potent growth arrest. On to `CNC1=CC(=O)C2=C(C1=O)C1C3=C(C(=O)C(Br)=C(OC)C3=O)C2c2ccccc21` (stereo not given), for which the GI50 in the experiment with U251 CNS is 1.41 µM; with HT29 colon, 2.71 µM; in the experiment with SNB-75 CNS, 5.69 µM; with UACC-62 melanoma, 1.47 µM; in the experiment on CAKI-1 renal it was 1.89 µM; with SK-MEL-5 melanoma it was 5.46 µM. Also, the GI50 was 3.87 µM with OVCAR-8 ovarian, 1.55 µM in the experiment with HOP-62 NSCLC, 1.53 µM with EKVX NSCLC and 1.24 µM in the experiment with HOP-92 NSCLC. The TGI in the experiment with U251 CNS is 4.26 µM; in the experiment with HT29 colon it was greater than 50 µM; with SNB-75 CNS, 18.2 µM; with UACC-62 melanoma, 3.89 µM; with CAKI-1 renal, 4.83 µM; in the experiment on SK-MEL-5 melanoma, 16.9 µM. Besides, the concentration for total growth inhibition (TGI) in the experiment with OVCAR-8 ovarian is greater than 50 µM; in the experiment with HOP-62 NSCLC it was 4.61 µM; in the experiment on EKVX NSCLC, 3.31 µM; in the experiment with HOP-92 NSCLC, 2.97 µM.
For the compound `Cc1[nH]c(=O)nc(N/N=C/c2ccc(Cl)cc2)c1C(=O)Nc1ccc(Cl)cc1`, the total growth inhibition concentration (TGI) is 23.5 µM in the experiment with U251 CNS; greater than 100 µM with HT29 colon; 14.6 µM with SNB-75 CNS; greater than 100 µM with UACC-62 melanoma; greater than 90.9 µM in the experiment on CAKI-1 renal; 48.4 µM in the experiment on SK-MEL-5 melanoma. In addition, the TGI in the experiment on OVCAR-8 ovarian was 37.5 µM; in the experiment on HOP-62 NSCLC, 26 µM; in the experiment on EKVX NSCLC, greater than 100 µM; with HOP-92 NSCLC it was 77.8 µM.
Turning to `CN(C)CCC(=O)N1CCc2c([nH]c3ccccc23)C1c1cccnc1` (stereo not given), the total growth inhibition concentration (TGI) in the experiment on U251 CNS, in the experiment on HT29 colon, with SNB-75 CNS, with UACC-62 melanoma, in the experiment with CAKI-1 renal and with SK-MEL-5 melanoma was greater than 100 µM each time. The TGI with OVCAR-8 ovarian, in the experiment on HOP-62 NSCLC, in the experiment with EKVX NSCLC and in the experiment on HOP-92 NSCLC was greater than 100 µM in each case.
Regarding `CC(=O)OC1CC2(O)C(CCC3(C)C(c4ccc(=O)oc4)CCC32O)C2(C)CCC(OC3OC(CO)C(O)C(O)C3O)C=C12` (stereo not given), the GI50 is 0.0348 µM with U251 CNS; 0.045 µM in the experiment on HT29 colon; 0.0333 µM with SNB-75 CNS; 0.03 µM with UACC-62 melanoma; 0.0306 µM with CAKI-1 renal; 0.0196 µM with SK-MEL-5 melanoma. Also, the concentration for 50% growth inhibition (GI50) is 0.0294 µM in the experiment with OVCAR-8 ovarian, 0.0201 µM in the experiment with HOP-62 NSCLC, 0.0135 µM in the experiment with EKVX NSCLC and 0.0494 µM with HOP-92 NSCLC. Moreover, the TGI with U251 CNS is 0.136 µM; in the experiment on HT29 colon, 0.381 µM; with SNB-75 CNS, 0.192 µM; in the experiment on UACC-62 melanoma it was 0.101 µM; in the experiment with CAKI-1 renal, 0.131 µM; with SK-MEL-5 melanoma, 0.0672 µM. For the same compound, the concentration for total growth inhibition (TGI) in the experiment on OVCAR-8 ovarian turned out to be 0.126 µM; in the experiment on HOP-62 NSCLC it was 0.144 µM; with EKVX NSCLC, 0.0419 µM; in the experiment with HOP-92 NSCLC, 0.318 µM.
As to `Cc1cccc2c(N=Nc3ccccc3[N+](=O)[O-])c(O)[nH]c12`, the concentration for total growth inhibition (TGI) in the experiment on U251 CNS was 7.68 µM; with HT29 colon, greater than 52.7 µM; in the experiment with SNB-75 CNS it was 31.9 µM; with UACC-62 melanoma, 73.7 µM; in the experiment on CAKI-1 renal, 16.3 µM; with SK-MEL-5 melanoma, greater than 81.9 µM. Moreover, the TGI with OVCAR-8 ovarian is greater than 38.2 µM; in the experiment on HOP-62 NSCLC, 21.8 µM; in the experiment with EKVX NSCLC it was 33.6 µM; in the experiment on HOP-92 NSCLC, 8.16 µM.
`O=C1[C@@H]2C(c3ccncc3)=NO[C@@H]2C(=O)N1c1ccc(Cc2ccc(N3C(=O)[C@H]4C(c5ccncc5)=NO[C@H]4C3=O)cc2)cc1`: the TGI with U251 CNS, in the experiment with HT29 colon, in the experiment on SNB-75 CNS, in the experiment with UACC-62 melanoma, with CAKI-1 renal and in the experiment on SK-MEL-5 melanoma was greater than 100 µM in each case. For the same compound, the TGI in the experiment with OVCAR-8 ovarian, in the experiment with HOP-62 NSCLC, in the experiment on EKVX NSCLC and in the experiment on HOP-92 NSCLC was greater than 100 µM throughout.
For the compound `Cc1ccc(S(=O)(=O)NNC(C[N+](=O)[O-])c2ccccc2)cc1` (stereo not given), the concentration for total growth inhibition (TGI) in the experiment with U251 CNS worked out at 60.5 µM; in the experiment with HT29 colon it was 3.99 µM; in the experiment with SNB-75 CNS, 41 µM; with UACC-62 melanoma it was 85.3 µM; with CAKI-1 renal, 47.7 µM; in the experiment on SK-MEL-5 melanoma, 36.7 µM. The TGI in the experiment with OVCAR-8 ovarian is 46.1 µM; in the experiment with HOP-62 NSCLC it was 74.5 µM; with EKVX NSCLC it was greater than 100 µM; with HOP-92 NSCLC, greater than 100 µM.
Regarding `O=C1c2ccccc2C(=O)c2sc(Nc3ccc(Cl)cc3)nc21`, the TGI in the experiment with U251 CNS came out at 3.55 µM; in the experiment with HT29 colon it was 15.5 µM; with SNB-75 CNS it was 12.7 µM; with UACC-62 melanoma it was 4.05 µM; in the experiment on CAKI-1 renal, 5.86 µM; in the experiment with SK-MEL-5 melanoma, 3.6 µM. In addition, the TGI stood at 4.49 µM with OVCAR-8 ovarian, 9.26 µM in the experiment with HOP-62 NSCLC, 17.9 µM in the experiment with EKVX NSCLC and 22.9 µM with HOP-92 NSCLC. In the experiment with HOP-92 NSCLC, the GI50 was 10.3 µM.
Turning to `N#CSCC1CC(O)(c2ccccc2)CC(c2ccc(Cl)cc2)O1` (stereo not given), the GI50 was 2.64 µM with U251 CNS; 3.44 µM in the experiment with HT29 colon; 3.58 µM in the experiment with SNB-75 CNS; 3.31 µM with UACC-62 melanoma; 3.2 µM with CAKI-1 renal; 0.559 µM in the experiment with SK-MEL-5 melanoma. The GI50 was 1.98 µM in the experiment with OVCAR-8 ovarian, 4.46 µM in the experiment with HOP-62 NSCLC, 4.19 µM with EKVX NSCLC and 2.21 µM with HOP-92 NSCLC. Moreover, the TGI is 9.03 µM in the experiment with U251 CNS; 8.74 µM with HT29 colon; 13.3 µM with SNB-75 CNS; 10.9 µM with UACC-62 melanoma; 9.51 µM with CAKI-1 renal; 14.9 µM with SK-MEL-5 melanoma. The TGI in the experiment on OVCAR-8 ovarian came to 3.94 µM; in the experiment on HOP-62 NSCLC it was 14.9 µM; in the experiment on EKVX NSCLC, 17.7 µM; in the experiment on HOP-92 NSCLC, 5.58 µM.
On to `COc1ccc2c(c1)C(=O)c1c-2n(CCCN=[N+]=[N-])c(=O)c2cc(N)ccc12`, for which the GI50 with U251 CNS is greater than 100 µM; in the experiment on HT29 colon, 47.6 µM; with UACC-62 melanoma, greater than 100 µM; with CAKI-1 renal, greater than 100 µM; with SK-MEL-5 melanoma, greater than 100 µM; in the experiment with OVCAR-8 ovarian it was greater than 100 µM. In addition, the GI50 was greater than 100 µM in the experiment with HOP-62 NSCLC, greater than 100 µM with EKVX NSCLC and 58.8 µM in the experiment with HOP-92 NSCLC. For the same compound, the TGI in the experiment with U251 CNS, with HT29 colon, with SNB-75 CNS, in the experiment with UACC-62 melanoma, in the experiment on CAKI-1 renal and in the experiment with SK-MEL-5 melanoma was greater than 100 µM each time. In addition, the TGI in the experiment on OVCAR-8 ovarian, in the experiment on HOP-62 NSCLC, in the experiment on EKVX NSCLC and with HOP-92 NSCLC was greater than 100 µM in each case.

(Values after PubChem BioAssay (NCI).)
